From patent US20060014643A1, “Combinations of aryloxyphenoxypropionates and safeners and their use for increasing weed control” (BAYER CROPSCIENCE GMBH, priority 2002, published 2006)

How the values were obtained:
Type in all cases: in vivo
[1] = system: Triticum aestivum (spring wheat); test: Phytotoxicity (crop damage) to spring wheat (field trial); details: spring wheat at 3-5 leaves, visual scoring 4 weeks after treatment, rate g a.i./ha: (A1) 112, (A3) 1680, (B1) 28, mixtures 112 + 28 and 1680 + 28
Experimental: (§1) Spring wheat was grown outdoors on plots under natural outdoor conditions, and seeds of typical harmful plants were laid out. Treatment with a mixture of a (hetero)aryloxyphenoxypropionate herbicide and the safener mefenpyr-diethyl using standard formulations of the active ingredients at an application rate of 300 l water per hectare was carried out after the harmful plants had emerged and the spring wheat was in the growth stage between 3 and 5 leaves for the plants. The effect of the composition was assessed 4 weeks after treatment by scoring visually in comparison with untreated controls.

Setaria lutescens = test: Post-emergence weed control in spring wheat (field trial); details: visual scoring 4 weeks after treatment vs untreated, rate g a.i./ha: (A1) 112, (A3) 1680, (B1) 28, mixtures 112 + 28 and 1680 + 28, 300 l water/ha
Experimental: as §1

Alopecurus myosuroides = test: Post-emergence weed control in winter wheat (field trial); details: visual scoring 112 days after treatment vs untreated, rate g a.i./ha: (A5) 37.3, (B1) 10, (A5)+(B1) 37.3 + 10, 300 l water/ha
Experimental: (§2) Winter wheat was grown outdoors on plots under natural outdoor conditions, and seeds of typical harmful plants were laid out. […] The effect of the composition was assessed 112 days after treatment by scoring visually in comparison with untreated controls.

[2] = system: Triticum aestivum (winter wheat); test: Phytotoxicity (crop damage) to winter wheat (field trial); details: winter wheat at 3-5 leaves, visual scoring 112 days after treatment, rate g a.i./ha: (A5) 37.3, (B1) 10, (A5)+(B1) 37.3 + 10
Experimental: as §2

| Compound | Phytotox (%) of TRZAS [1] | Weed control (%) of SETLU (Setaria lutescens) | Weed control (%) of ALOMY (Alopecurus myosuroides) | Phytotox (%) of TRZAW [2] |
| --- | --- | --- | --- | --- |
| CC(Oc1ccc(Oc2ccc(Cl)cc2Cl)cc1)C(=O)O (racemic) [(A3), (RS)-2-[4-(2,4-dichlorophenoxy)phenoxy]propionic acid] | 12% | 45% |  |  |
| C#CCOC(=O)[C@@H](C)Oc1ccc(Oc2ncc(Cl)cc2F)cc1 [(A1), prop-2-ynyl (R)-2-[4-(5-chloro-3-fluoropyridin-2-yloxy)phenoxy]propionate] | 20% | 68% |  |  |
| CCOC(=O)[C@@H](C)Oc1ccc(Oc2nc3ccc(Cl)cc3o2)cc1 [(A5), ethyl (R)-2-[4-(6-chloro-1,3-benzoxazol-2-yloxy)phenoxy]propionate] |  |  | 69% | 10% |
| CCOC(=O)C1=NN(c2ccc(Cl)cc2Cl)C(C)(C(=O)OCC)C1 (stereo not shown) [(B1), ethyl 1-(2,4-dichlorophenyl)-5-(ethoxycarbonyl)-5-methyl-2-pyrazoline-3-carboxylate] | 0% | 0% | 0% | 0% |
